Assay [1] deals with Akt phosphorylation in Molt-4 (PTEN−/SHIP1+) cells. Briefly: Akt phosphorylation in IGF-1 stimulated Molt-4 lymphocytes (western blot). The assay is classed as cell-based. Details: key: +: inhibits Akt phosphorylation at 10 μM; −: no effect on Akt phosphorylation at 10 μM. Particulars: 10 μM; IGF-1 stimulation. As for the experimental part: Jurkat (PTEN−/SHIP1−) or Molt-4 (PTEN−/SHIP1+) cells were starved in serum free RPMI for overnight. In a 15 mL conical tube, 2-3 million serum starved cells (1 million cells per mL) were treated with various concentrations of test compound (0.1, 1, or 10 μM final in 0.1% DMSO) for 30 min at 37° C. followed by stimulation with 100 ng/mL of IGF-1 for 1 hour at 37° C. After stimulation, cells were washed once with ice-cold DPBS and lysed with Lysis Buffer (20 mM Tris-HCl, pH 7.5, 140 mM NaCl, 1% NP-40, Complete Mini Protease Inhibitor Cocktail, 10 mM NaF, 1 mM Na3VO4, 1 mM β-glycerolphosphate) on ice for 30 min with vortexing every 10 min. Samples were then centrifuged at 13,000 rpm for 20 min, and supernatants were collected as total cell lysate samples. Protein concentration was determined using bicinchonic acid assay, and about 15 μg of total protein from each sample was loaded and separated on a 4-12% Tris-Glycine gel. After SDS-PAGE, proteins were transferred from the gel to a nitrocellulose membrane. The membrane was blocked in 5% BSA in PBS containing 0.1% Tween-20 (PBS-T) for 1 hour at room temperature before probing with primary antibodies for overnight at 4° C. The following antibodies were used: mouse anti-SHIP1 (1:500 dilution; Santa Cruz, Calif., USA), rabbit anti-phospho-Akt(Ser473) (1:1000 dilution; Cell Signaling Technologies, MA, USA), rabbit anti-Akt (1:1000; Cell Signaling Technologies, MA, USA), and rabbit anti-actin (1:2000; Cell Signaling Technologies, MA, USA). The membrane was then incubated with goat anti-rabbit or anti-mouse secondary antibodies (1:3000) for 1 hour at room temperature. Target proteins on the membrane were detected with ECL solution and exposed on a film.
Scoring in Table 3 is expressed as follows: + (inhibits Akt phosphorylation at 10 μM); − (no effect on Akt phosphorylation at 10 μM).
Background: A western blot detects proteins with antibodies after separation by electrophoresis.

Assay [2] deals with allergen-induced passive cutaneous anaphylaxis. Description: Passive cutaneous anaphylaxis in mice. The assay is classed as in vivo. The note with it: oral gavage, doses less than 20 mg/kg. As for the experimental part:
The activity of representative compounds on passive cutaneous anaphylaxis in mice was evaluated according to the procedures disclosed by Ovary, J Immunol 81, 355-357, 1958 and Halpern et al., Br J Pharmacol Chemother 20, 389-398, 1963, both of which are incorporated herein by reference in their entirety. To induce a passive cutaneous anaphylaxis, mice underwent intradermal ear inoculation on their right ear with 25 ng in 20 μL of anti-DNP-IgE. The left ears were untreated and served as negative controls. Twenty-four hours after inoculation, all mice were administered test compound by oral gavage (PO). Sixty minutes after oral administration, mice were given a tail vein injection of 2% Evan's blue (0.2 μm filtered, in 200 μL saline) followed by a second tail IV injection of 100 μg DNP-HSA (in 200 μL). Sixty minutes following the DNP-HSA injection, mice were euthanized using CO2 inhalation. Subsequently, ear biopsies were performed by taking four millimetre punches from both ears, which then underwent Evan's Blue extraction using formamide incubation in 96 well plates. Eighty μL of eluents were transferred to flat-bottom 96-well plates and absorbance read using SpectraMax M5 spectrophotometer (Molecular Devices, Sunnyvale, Calif., USA) at 620 nm. Background readings from all samples were taken at 740 nm and subtracted from the 620 nm readings. Data were reported as OD. […] Scoring in Table 4 is expressed as follows: + (1-30% inhibition); ++ (31-50% inhibition); +++ (>50% inhibition).

As for `Cc1cc(O)cc2c1[C@]1(C)CC[C@H]3C(C)(C)CCC[C@]3(C)[C@H]1CO2` [Compound No. 6, (1R,10R,11S,16S)-1,3,11,15,15-pentamethyl-8-oxatetracyclo[8.8.0.0^2,7.0^11,16]octadeca-2,4,6-trien-5-ol], the “Akt phosphorylation, Molt-4 (SHIP1+)” value in assay [1] is recorded as “+”. Besides, in assay [2], the “Scoring: inhibition of passive cutaneous anaphylaxis” value is “++ (31-50% inhibition)”.

In the case of `CC1(C)CCC[C@]2(C)[C@H]3CS(=O)(=O)c4cc(O)cc(O)c4[C@]3(C)CC[C@@H]12` [Compound No. 28, (1R,10R,11S,16S)-3,5-dihydroxy-1,11,15,15-tetramethyl-8-thiatetracyclo[8.8.0.0^2,7.0^11,16]octadeca-2,4,6-triene-8,8-dione], the “Akt phosphorylation, Molt-4 (SHIP1+)” value in assay [1] is given as “+”. Besides, the “Scoring: inhibition of passive cutaneous anaphylaxis” value in assay [2] is on record as “+++ (>50% inhibition)”.

The values are drawn from patent US8101605B2, “SHIP1 modulators and methods related thereto” (Aquinox Pharmaceuticals Inc., priority 2009, dated 2012).
